Experimental data taken from patent publication US9453026B2, “ACC inhibitors and uses thereof” (Gilead Apollo, Inc., priority 2011, dated 2016).
≈ marks a conversion by molar mass, not a printed value. Where “and” joins values, the source holds several entries; their conditions need not be identical. Equal entries are not always repeated. Where two headings read alike, the source gives them in different places.

Tests used:
[1] = target: ACC2 (Homo sapiens, UniProt O00763); test: In vitro ACC2 inhibition assay (ADP-Glo); type: biochemical; conditions: read-out: ACC2
In short: (§1)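 Enzyme (human ACC1 or ACC2) and compound, serially diluted 1:3 over 11 points from a 600 uM DMSO stock, were preincubated 15 min before substrate addition.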

[2] = target: ACC1 (Homo sapiens, UniProt Q13085); test: In vitro ACC1 inhibition assay (ADP-Glo); type: biochemical; conditions: read-out: ACC1
In short: as §1

[3] = system: C. krusei ATCC 6258; test: Anti-Fungal Activity Assay (broth microtiter MIC); type: cell-based; conditions: 3 replicates, test compounds read at 48 h
Procedure: (§2) Compounds of the present invention were evaluated in an Anti-Fungal Activity Assay. An exemplary procedure for the assay, which measures the susceptibility of various Candida species to anti-fungal compounds, follows. Compounds to be tested (including fluconazole and amphotericin B) were dissolved in DMSO to obtain a solution having a concentration of 1 mg/mL. […] All species were grown from frozen stock by directly plating on to freshly prepared Sabouraud Dextrose agar (BD, Difco) and incubated overnight in ambient air at 35° C. for 24 h. A direct suspension was prepared in RPMI 1640+MOPS (Lonza, Biowhittaker) by taking individual colonies from the overnight cultures using sterile swabs soaked in sterile saline. The concentration of the suspension was determined using pre-determined standard curves. […] The original CLSI guidelines focused on reading Candida MICs after 48 h of incubation. As reading after only 24 h offers a clear advantage of patient care, QC limits are being established for all drugs at 24 h. That being said there are no known interpretive breakpoints for amphotericin B at 24 h and the current fluconazole interpretive breakpoints are based on a 48 h reading. The MIC breakpoints for the Pharmaron test compounds were recorded at 48 h, and for the soraphen the 24 h time-point was added. All MIC determinations were achieved by visually comparing the growth found in the antibiotic challenged wells to that of the growth control.

[4] = system: C. albicans ATCC 90028; test: Anti-Fungal Activity Assay (broth microtiter MIC); type: cell-based; conditions: 3 replicates, test compounds read at 48 h
Procedure: as §2

[5] = system: C. parapsilosis ATCC 22019; test: Anti-Fungal Activity Assay (broth microtiter MIC); type: cell-based; conditions: 3 replicates, test compounds read at 48 h
Procedure: as §2

[6] = system: Candida species; test: Anti-Fungal Activity Assay, summary over Candida species; type: cell-based; conditions: summary of Table 3
Procedure: as §2

[7] = system: target protein (ACC); test: Thermal Shift Assay (TSA); type: binding; conditions: FIG. 2
Source text: 103, 43, 15835-15840, the entirety of which is incorporated herein by reference.

[8] = Pichia kudriavzevii, ATCC6258, 48 h, read-out: MIC
[9] = Candida albicans, ATCC90028, 48 h, read-out: MIC
[10] = Lodderomyces parapsilosis, ATCC22019, 48 h, read-out: MIC

Sequence of ACC2 (O00763 whole entry, species assumed): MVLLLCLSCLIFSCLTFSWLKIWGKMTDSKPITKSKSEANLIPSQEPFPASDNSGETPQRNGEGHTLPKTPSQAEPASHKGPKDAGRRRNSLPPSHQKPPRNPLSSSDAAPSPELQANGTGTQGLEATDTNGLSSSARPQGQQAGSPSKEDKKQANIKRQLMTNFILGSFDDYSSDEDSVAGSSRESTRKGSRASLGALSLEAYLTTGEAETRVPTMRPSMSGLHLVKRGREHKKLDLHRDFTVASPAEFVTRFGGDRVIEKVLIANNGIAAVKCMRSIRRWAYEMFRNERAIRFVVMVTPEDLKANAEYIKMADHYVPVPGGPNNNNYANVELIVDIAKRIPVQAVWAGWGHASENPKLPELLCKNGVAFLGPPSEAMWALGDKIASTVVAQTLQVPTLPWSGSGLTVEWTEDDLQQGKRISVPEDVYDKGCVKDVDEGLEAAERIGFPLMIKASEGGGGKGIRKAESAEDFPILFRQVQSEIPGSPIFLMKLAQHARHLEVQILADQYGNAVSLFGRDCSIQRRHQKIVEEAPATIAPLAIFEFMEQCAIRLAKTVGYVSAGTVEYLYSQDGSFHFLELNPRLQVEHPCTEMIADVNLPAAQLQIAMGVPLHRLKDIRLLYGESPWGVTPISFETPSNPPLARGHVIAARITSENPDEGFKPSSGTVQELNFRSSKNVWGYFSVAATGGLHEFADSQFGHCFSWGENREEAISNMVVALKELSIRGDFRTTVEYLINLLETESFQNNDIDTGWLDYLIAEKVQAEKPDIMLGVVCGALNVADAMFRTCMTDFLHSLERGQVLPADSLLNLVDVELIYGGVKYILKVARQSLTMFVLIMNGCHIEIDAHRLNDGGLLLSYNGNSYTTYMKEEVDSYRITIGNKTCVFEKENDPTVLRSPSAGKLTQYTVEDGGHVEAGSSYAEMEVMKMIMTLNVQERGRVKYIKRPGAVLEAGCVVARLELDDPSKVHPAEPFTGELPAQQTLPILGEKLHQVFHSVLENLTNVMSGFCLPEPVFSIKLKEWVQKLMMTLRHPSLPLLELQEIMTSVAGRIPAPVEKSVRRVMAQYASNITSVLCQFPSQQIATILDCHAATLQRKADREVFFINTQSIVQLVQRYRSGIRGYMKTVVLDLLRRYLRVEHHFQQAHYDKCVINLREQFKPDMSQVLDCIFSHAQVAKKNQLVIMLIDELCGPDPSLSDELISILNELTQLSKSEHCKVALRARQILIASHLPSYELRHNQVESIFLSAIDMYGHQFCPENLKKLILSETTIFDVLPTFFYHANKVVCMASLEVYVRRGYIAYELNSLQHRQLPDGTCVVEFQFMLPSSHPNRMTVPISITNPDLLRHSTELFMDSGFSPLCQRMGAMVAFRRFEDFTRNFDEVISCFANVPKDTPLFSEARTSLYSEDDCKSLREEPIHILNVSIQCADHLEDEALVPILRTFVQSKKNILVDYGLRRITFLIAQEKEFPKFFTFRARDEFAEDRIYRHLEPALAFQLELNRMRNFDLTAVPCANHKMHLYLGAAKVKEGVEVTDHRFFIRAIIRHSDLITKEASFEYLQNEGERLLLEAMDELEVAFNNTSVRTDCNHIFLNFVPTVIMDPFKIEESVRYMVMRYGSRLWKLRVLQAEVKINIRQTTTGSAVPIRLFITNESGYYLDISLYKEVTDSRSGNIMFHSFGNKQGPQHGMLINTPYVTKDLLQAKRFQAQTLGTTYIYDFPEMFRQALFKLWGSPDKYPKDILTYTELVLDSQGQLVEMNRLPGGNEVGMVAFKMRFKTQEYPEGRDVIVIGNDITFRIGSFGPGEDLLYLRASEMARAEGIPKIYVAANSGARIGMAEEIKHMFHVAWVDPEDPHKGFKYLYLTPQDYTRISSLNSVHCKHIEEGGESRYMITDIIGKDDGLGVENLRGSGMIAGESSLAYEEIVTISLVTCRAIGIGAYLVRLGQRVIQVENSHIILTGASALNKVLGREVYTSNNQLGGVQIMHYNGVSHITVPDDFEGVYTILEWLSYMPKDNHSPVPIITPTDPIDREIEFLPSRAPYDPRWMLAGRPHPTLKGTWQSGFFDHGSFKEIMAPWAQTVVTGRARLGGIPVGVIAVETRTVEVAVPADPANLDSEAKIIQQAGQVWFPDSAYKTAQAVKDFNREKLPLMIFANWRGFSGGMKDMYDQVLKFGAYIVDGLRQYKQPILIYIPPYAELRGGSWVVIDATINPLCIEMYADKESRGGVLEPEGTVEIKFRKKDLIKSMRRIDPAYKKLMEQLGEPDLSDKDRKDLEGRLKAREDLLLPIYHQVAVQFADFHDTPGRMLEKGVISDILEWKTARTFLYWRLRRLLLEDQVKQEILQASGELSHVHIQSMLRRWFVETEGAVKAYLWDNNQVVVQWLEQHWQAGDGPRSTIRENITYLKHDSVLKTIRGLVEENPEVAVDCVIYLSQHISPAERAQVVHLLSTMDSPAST

IC50 [1]	IC50 [2]	MIC [3]	MIC [3, 8]	MIC [4]	MIC [4, 9]	MIC [5]	MIC [5, 10]	anti-fungal activity MICs [6]	SMILES	thermal melting point change [7]
< 0.1 µM	< 0.1 µM	>64 µg/mL	> 64 µg/mL	>64 µg/mL	> 64 µg/mL	>64 µg/mL	> 64 µg/mL	–	Cc1c(-c2ncco2)sc2c1c(=O)n(C(C)(C)C(=O)O)c(=O)n2C[C@H](Oc1ccc(-n2ccnc2)cc1)c1ccccc1 [I-160, 2-[1-[(2R)-2-[4-(1H-imidazol-1-yl)phenoxy]-2-phenylethyl]-5-methyl-6-(1,3-oxazol-2-yl)-2,4-dioxo-1H,2H,3H,4H-thieno[2,3-d]pyrimidin-3-yl]-2-methylpropanoic acid]	–
–	–	32 ug/mL (2×) and 2 ug/mL	–	1 µg/mL and 2 µg/mL	1 µg/mL (≈ 3.27 µM)	2 µg/mL and 4 µg/mL	2 µg/mL (≈ 6.53 µM)	–	OC(Cn1cncn1)(Cn1cncn1)c1ccc(F)cc1F [Fluc., fluconazole, reference compound]	–
< 0.1 µM	< 0.1 µM	8 µg/mL (≈ 13.4 µM)	8 µg/mL (≈ 13.4 µM)	8 µg/mL (≈ 13.4 µM)	8 µg/mL (≈ 13.4 µM)	8 µg/mL (≈ 13.4 µM)	8 µg/mL (≈ 13.4 µM)	low ug/mL range	COc1ccccc1[C@H](Cn1c(=O)n(C(C)(C)C(=O)N2CCOCC2)c(=O)c2c(C)c(-c3ncco3)sc21)OC(C)C [I-235, 1-[(2R)-2-(2-methoxyphenyl)-2-(propan-2-yloxy)ethyl]-5-methyl-3-[2-methyl-1-(morpholin-4-yl)-1-oxopropan-2-yl]-6-(1,3-oxazol-2-yl)-1H,2H,3H,4H-thieno[2,3-d]pyrimidine-2,4-dione]	–
–	–	1 µg/mL (≈ 1.08 µM)	–	0.5 ug/mL (2×) and 1 ug/mL	–	1 µg/mL (≈ 1.08 µM)	–	–	C[C@@H]1[C@H](O)[C@@H](C)/C=C/C=C/C=C/C=C/C=C/C=C/C=C/[C@H](O[C@@H]2O[C@H](C)[C@@H](O)[C@H](N)[C@@H]2O)C[C@@H]2O[C@](O)(C[C@@H](O)C[C@@H](O)[C@H](O)CC[C@@H](O)C[C@@H](O)CC(=O)O[C@H]1C)C[C@H](O)[C@H]2C(=O)O [Amph. B, amphotericin B, reference compound]	–
< 0.1 µM	< 0.1 µM	>64 µg/mL	> 64 µg/mL	>64 µg/mL	> 64 µg/mL	>64 µg/mL	> 64 µg/mL	–	Cc1c(-c2ncco2)sc2c1c(=O)n(C(C)(C)C(=O)O)c(=O)n2C[C@H](O[C@H]1CC[C@H](O)CC1)c1ccccc1 [I-165, 2-[1-[(2R)-2-[(4-hydroxycyclohexyl)oxy]-2-phenylethyl]-5-methyl-6-(1,3-oxazol-2-yl)-2,4-dioxo-1H,2H,3H,4H-thieno[2,3-d]pyrimidin-3-yl]-2-methylpropanoic acid]	–
< 1 µM	–	16 µg/mL and 32 µg/mL	16 µg/mL (≈ 30.3 µM)	8 µg/mL (≈ 15.2 µM)	8 µg/mL (≈ 15.2 µM)	>64 µg/mL	> 64 µg/mL	low ug/mL range	COc1ccccc1[C@H](Cn1c(=O)n(C(C)(C)C(=O)O)c(=O)c2c(C)c(-c3ncco3)sc21)OC(C)C [I-159, 2-[1-[(2R)-2-(2-methoxyphenyl)-2-(propan-2-yloxy)ethyl]-5-methyl-6-(1,3-oxazol-2-yl)-2,4-dioxo-1H,2H,3H,4H-thieno[2,3-d]pyrimidin-3-yl]-2-methylpropanoic acid]	–
< 0.1 µM	< 0.1 µM	4 µg/mL (≈ 7.21 µM)	8 µg/mL (≈ 14.4 µM)	8 µg/mL (≈ 14.4 µM)	8 µg/mL (≈ 14.4 µM)	2 µg/mL (≈ 3.61 µM)	2 µg/mL (≈ 3.61 µM)	low ug/mL range	CCNC(=O)C(C)(C)n1c(=O)c2c(C)c(-c3ncco3)sc2n(C[C@H](OC(C)C)c2ccccc2OC)c1=O [I-236, N-ethyl-2-[1-[(2R)-2-(2-methoxyphenyl)-2-(propan-2-yloxy)ethyl]-5-methyl-6-(1,3-oxazol-2-yl)-2,4-dioxo-1H,2H,3H,4H-thieno[2,3-d]pyrimidin-3-yl]-2-methylpropanamide]	–
< 1 µM	< 0.1 µM	>64 µg/mL	> 64 µg/mL	>64 µg/mL	> 64 µg/mL	>64 µg/mL	> 64 µg/mL	–	Cc1c(-c2ncco2)sc2c1c(=O)n(C(C)(C)C(=O)O)c(=O)n2C[C@H](OC1CCOCC1)c1ccccc1 [I-162, 2-methyl-2-[5-methyl-1-[(2R)-2-(oxan-4-yloxy)-2-phenylethyl]-6-(1,3-oxazol-2-yl)-2,4-dioxo-1H,2H,3H,4H-thieno[2,3-d]pyrimidin-3-yl]propanoic acid]	–
< 1 µM	< 0.1 µM	–	–	–	–	–	–	–	CCOC(=O)c1sc2c(c1C)c(=O)n(CC(=O)O)c(=O)n2CC(OC(C)C)c1ccccc1 (stereo in doubt) [I-97, (R)-2-(6-(ethoxycarbonyl)-1-(2-isopropoxy-2-phenylethyl)-5-methyl-2,4-dioxo-1,2-dihydrothieno[2,3-d]pyrimidin-3(4H)-yl)acetic acid]	more than 14 ′C
< 1 µM	< 1 µM	–	–	–	–	–	–	–	Cc1c(-c2ncco2)sc2c1c(=O)n(C(C)(C)C(=O)O)c(=O)n2C[C@H](O[C@H]1CC[C@](C)(O)CC1)c1ccccc1 [I-163, 2-(1-((R)-2-(((1r,4R)-4-hydroxy-4-methylcyclohexyl)oxy)-2-phenylethyl)-5-methyl-6-(oxazol-2-yl)-2,4-dioxo-1,2-dihydrothieno[2,3-d]pyrimidin-3(4H)-yl)-2-methylpropanoic acid]	–
< 0.1 µM	< 0.1 µM	–	–	–	–	–	–	–	Cc1c(-c2ncco2)sc2c1c(=O)n(C(C)(C)C(=O)O)c(=O)n2C[C@@H](OC1CCOCC1)c1ccccc1CC#N [I-303, (S)-2-(1-(2-(2-(cyanomethyl)phenyl)-2-((tetrahydro-2H-pyran-4-yl)oxy)ethyl)-5-methyl-6-(oxazol-2-yl)-2,4-dioxo-1,2-dihydrothieno[2,3-d]pyrimidin-3(4H)-yl)-2-methylpropanoic acid]	–
< 5 µM	< 5 µM	–	–	–	–	–	–	–	CCOC(=O)c1sc2c(c1C)c(=O)n(CCc1nnn[nH]1)c(=O)n2CCc1ccccc1 [I-61]	–
< 0.1 µM	< 0.1 µM	–	–	–	–	–	–	–	COc1ccccc1[C@H](Cn1c(=O)n(C(C)(C)C(=O)NC(C)C)c(=O)c2c(C)c(-c3ncco3)sc21)OC(C)C [I-242, 2-[1-[(2R)-2-(2-methoxyphenyl)-2-(propan-2-yloxy)ethyl]-5-methyl-6-(1,3-oxazol-2-yl)-2,4-dioxo-1H,2H,3H,4H-thieno[2,3-d]pyrimidin-3-yl]-2-methyl-N-(propan-2-yl)propanamide]	–
< 0.1 µM	< 0.1 µM	–	–	–	–	–	–	–	Cc1c(-c2ncco2)sc2c1c(=O)n(C(C)(C)C(=O)O)c(=O)n2C[C@H](OC1CCOCC1)c1ccccc1COC(C)C [I-297, 2-methyl-2-[5-methyl-1-[(2R)-2-(oxan-4-yloxy)-2-[2-[(propan-2-yloxy)methyl]phenyl]ethyl]-6-(1,3-oxazol-2-yl)-2,4-dioxo-1H,2H,3H,4H-thieno[2,3-d]pyrimidin-3-yl]propanoic acid]	–
< 1 µM	< 0.1 µM	–	–	–	–	–	–	–	CCOC(=O)c1sc2c(c1C)c(=O)n(C(C)(C)C(=O)O)c(=O)n2C[C@H](O[C@H](C)CC)c1ccccc1 [I-130, 2-[1-[(2R)-2-[(2R)-butan-2-yloxy]-2-phenylethyl]-6-(ethoxycarbonyl)-5-methyl-2,4-dioxo-1H,2H,3H,4H-thieno[2,3-d]pyrimidin-3-yl]-2-methylpropanoic acid]	–
< 5 µM	< 5 µM	–	–	–	–	–	–	–	CCOC(=O)c1sc2c(c1C)c(=O)n(Cc1nnn[nH]1)c(=O)n2CCc1ccccc1 [I-45, ethyl 5-methyl-2,4-dioxo-1-(2-phenylethyl)-3-(1H-1,2,3,4-tetrazol-5-ylmethyl)-1H,2H,3H,4H-thieno[2,3-d]pyrimidine-6-carboxylate]	–
< 0.1 µM	< 0.1 µM	–	–	–	–	–	–	–	COc1ccccc1[C@H](Cn1c(=O)n(C(C)(C)C(N)=O)c(=O)c2c(C)c(-c3ncco3)sc21)OCC1CCOCC1 [I-260, 2-[1-[(2R)-2-(2-methoxyphenyl)-2-(oxan-4-ylmethoxy)ethyl]-5-methyl-6-(1,3-oxazol-2-yl)-2,4-dioxo-1H,2H,3H,4H-thieno[2,3-d]pyrimidin-3-yl]-2-methylpropanamide]	–

SMILES	IC50 [1]	IC50 [2]	MIC [3]	MIC [3, 8]	MIC [4]	MIC [4, 9]	MIC [5]	MIC [5, 10]	anti-fungal activity MICs [6]	thermal melting point change [7]
COc1ccccc1[C@H](Cn1c(=O)n(C(C)(C)C(N)=O)c(=O)c2c(C)c(-c3ncco3)sc21)OC1CCOCC1 [I-246, 2-[1-[(2R)-2-(2-methoxyphenyl)-2-(oxan-4-yloxy)ethyl]-5-methyl-6-(1,3-oxazol-2-yl)-2,4-dioxo-1H,2H,3H,4H-thieno[2,3-d]pyrimidin-3-yl]-2-methylpropanamide]	–	–	16 µg/mL (≈ 28.1 µM)	16 µg/mL (≈ 28.1 µM)	4 µg/mL (≈ 7.03 µM)	4 µg/mL (≈ 7.03 µM)	4 µg/mL (≈ 7.03 µM)	4 µg/mL (≈ 7.03 µM)	low ug/mL range	–
